Measured values reported in ChEMBL document CHEMBL1134096, “Discovery and characterization of the potent, selective and orally bioavailable MMP inhibitor ABT-770” (Bioorg Med Chem Lett, 2001).
Values joined by “and” are separate entries in the source; they are usually repeats but may differ in a detail not shown here. Identical values can stand only once.

Key:
[1] = biological target: T1, Interstitial collagenase (Homo sapiens, UniProt P03956); assay: In vitro inhibition of human Matrix metalloprotease-1.
T1 sequence (P03956 whole entry): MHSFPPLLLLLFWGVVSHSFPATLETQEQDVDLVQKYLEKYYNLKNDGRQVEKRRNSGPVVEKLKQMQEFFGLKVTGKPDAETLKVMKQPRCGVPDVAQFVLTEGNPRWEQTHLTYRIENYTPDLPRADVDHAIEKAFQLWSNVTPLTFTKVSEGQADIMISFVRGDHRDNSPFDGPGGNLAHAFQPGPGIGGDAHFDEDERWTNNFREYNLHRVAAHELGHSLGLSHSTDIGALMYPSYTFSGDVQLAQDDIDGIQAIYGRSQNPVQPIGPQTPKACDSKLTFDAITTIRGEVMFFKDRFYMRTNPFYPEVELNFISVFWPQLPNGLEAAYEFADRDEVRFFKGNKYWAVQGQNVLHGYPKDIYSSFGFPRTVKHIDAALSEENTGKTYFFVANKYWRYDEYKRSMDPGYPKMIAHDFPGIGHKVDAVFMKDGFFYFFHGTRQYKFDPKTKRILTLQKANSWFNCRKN

[2] = biological target: 72 kDa type IV collagenase (Homo sapiens, UniProt P08253); assay: In vitro inhibition of human Matrix metalloprotease-2.
[3] = Half-life was determined in monkey after 3 mg/kg of i.v. dose; type: ADME, organism-based; design: dose 3 mg/kg, route intravenous; settings: cercopithecidae, in vivo, iv
[4] = Area under curve was determined in rat after a 3 mg/kg of oral dose; type: ADME, organism-based; design: dose 3 mg/kg, route oral; settings: in vivo
[5] = biological target: Matrix metalloproteinase-9 (Homo sapiens, UniProt P14780); assay: Inhibition of matrix metalloprotease-9
[6] = Half-life was determined in dog after a3 mg/kg of iv dose; type: ADME, organism-based, Canis lupus familiaris; settings: in vivo, 3 mg/kg
[7] = biological target: T2, Matrilysin (Homo sapiens, UniProt P09237); assay: Inhibition of Matrix metalloprotease-7
T2 sequence (P09237 whole entry): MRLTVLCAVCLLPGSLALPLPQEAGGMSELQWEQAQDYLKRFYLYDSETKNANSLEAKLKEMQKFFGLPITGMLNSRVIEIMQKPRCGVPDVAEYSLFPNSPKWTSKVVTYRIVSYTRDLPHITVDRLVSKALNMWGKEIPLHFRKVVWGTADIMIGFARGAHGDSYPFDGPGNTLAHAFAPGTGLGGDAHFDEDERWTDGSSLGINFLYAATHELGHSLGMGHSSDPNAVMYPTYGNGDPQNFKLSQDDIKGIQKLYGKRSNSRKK

[8] = Area under curve was determined in monkey after a 3 mg/kg of oral dose; type: ADME, organism-based; design: dose 3 mg/kg, route oral; settings: cercopithecidae, in vivo
[9] = system: Rattus norvegicus; assay: Plasma clearance value was determined in rat after a 3 mg/kg of iv dose; type: ADME, organism-based; design: dose 3 mg/kg, route intravenous; settings: in vivo
[10] = system: B16; assay: Maximal effective dose against growth of B16 melanoma cells implanted subcutaneously in flank of mice; type: functional, Mus musculus
[11] = Absolute bioavailability was evaluated in dog; type: ADME, organism-based, Canis lupus familiaris; settings: in vivo
[12] = Absolute bioavailability was evaluated in rat; type: ADME, organism-based; settings: in vivo
[13] = system: Canis familiaris; assay: Plasma clearance value was determined in dog after a 3 mg/kg of iv dose; type: ADME, organism-based, Canis lupus familiaris; design: dose 3 mg/kg, route intravenous; settings: in vivo
[14] = system: Mus musculus; assay: Increase in life span corresponding to 6.5 day delay to 1 g tumor weight at 100 mg/kg of oral dose in mice; type: functional; settings: 156 h
[15] = Plasma clearance value was determined in monkey after a 3 mg/kg of iv dose; type: ADME, organism-based; design: dose 3 mg/kg, route intravenous; settings: cercopithecidae, in vivo
[16] = Volume of distribution was determined in dog after a 3 mg/kg of iv dose; type: ADME, organism-based, Canis lupus familiaris; design: dose 3 mg/kg, route intravenous; settings: in vivo, read-out: V
[17] = Absolute bioavailability was evaluated in monkey; type: ADME, organism-based; settings: cercopithecidae, in vivo
[18] = Volume of distribution was determined in rat after a 3 mg/kg of iv dose; type: ADME, organism-based; design: dose 3 mg/kg, route intravenous; settings: in vivo, read-out: V
[19] = biological target: Stromelysin-1 (Homo sapiens, UniProt P08254); assay: Inhibition of Matrix metalloprotease-3
[20] = Area under curve was determined in dog after a 3 mg/kg of oral dose; type: ADME, organism-based, Canis lupus familiaris; design: dose 3 mg/kg, route oral; settings: in vivo
[21] = Volume of distribution was determined in monkey after a 3 mg/kg of iv dose; type: ADME, organism-based; design: dose 3 mg/kg, route intravenous; settings: cercopithecidae, in vivo, read-out: V

Chain of 72 kDa type IV collagenase (P08253 whole entry): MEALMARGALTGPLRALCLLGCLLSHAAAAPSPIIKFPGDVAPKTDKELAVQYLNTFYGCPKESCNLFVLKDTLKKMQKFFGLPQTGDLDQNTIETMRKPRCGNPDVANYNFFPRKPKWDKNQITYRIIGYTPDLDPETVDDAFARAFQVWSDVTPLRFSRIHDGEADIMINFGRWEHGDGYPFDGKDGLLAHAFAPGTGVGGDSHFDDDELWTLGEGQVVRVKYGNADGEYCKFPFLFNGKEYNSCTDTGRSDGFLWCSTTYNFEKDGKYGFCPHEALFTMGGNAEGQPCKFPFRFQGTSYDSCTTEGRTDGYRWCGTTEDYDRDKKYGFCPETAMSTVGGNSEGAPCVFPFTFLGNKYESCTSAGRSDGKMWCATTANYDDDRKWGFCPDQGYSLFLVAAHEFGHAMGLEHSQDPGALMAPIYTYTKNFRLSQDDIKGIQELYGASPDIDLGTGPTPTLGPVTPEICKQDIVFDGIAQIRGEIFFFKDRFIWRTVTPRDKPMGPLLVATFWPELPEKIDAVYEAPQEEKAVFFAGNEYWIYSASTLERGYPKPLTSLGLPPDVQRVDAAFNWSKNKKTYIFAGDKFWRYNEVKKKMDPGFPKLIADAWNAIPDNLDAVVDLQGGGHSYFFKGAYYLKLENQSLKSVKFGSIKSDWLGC
Chain of Matrix metalloproteinase-9 (P14780 whole entry): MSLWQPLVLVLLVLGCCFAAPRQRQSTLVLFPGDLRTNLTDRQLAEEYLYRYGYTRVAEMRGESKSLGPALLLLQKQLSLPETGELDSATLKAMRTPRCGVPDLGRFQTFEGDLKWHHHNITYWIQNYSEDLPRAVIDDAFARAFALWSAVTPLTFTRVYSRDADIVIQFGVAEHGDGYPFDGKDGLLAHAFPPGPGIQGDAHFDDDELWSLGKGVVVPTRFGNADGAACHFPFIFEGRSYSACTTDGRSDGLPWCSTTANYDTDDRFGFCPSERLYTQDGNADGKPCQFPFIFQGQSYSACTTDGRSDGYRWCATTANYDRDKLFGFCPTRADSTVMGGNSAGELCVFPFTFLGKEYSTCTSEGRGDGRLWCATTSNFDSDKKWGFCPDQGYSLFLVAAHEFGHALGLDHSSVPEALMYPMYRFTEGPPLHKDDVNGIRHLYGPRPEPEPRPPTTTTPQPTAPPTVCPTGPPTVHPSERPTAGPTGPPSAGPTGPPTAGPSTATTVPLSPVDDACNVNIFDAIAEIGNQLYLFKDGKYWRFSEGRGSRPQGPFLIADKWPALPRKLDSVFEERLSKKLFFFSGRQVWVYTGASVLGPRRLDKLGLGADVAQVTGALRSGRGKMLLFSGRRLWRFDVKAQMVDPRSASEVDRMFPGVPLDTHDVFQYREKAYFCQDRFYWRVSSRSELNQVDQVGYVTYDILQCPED
Chain of Stromelysin-1 (P08254 whole entry): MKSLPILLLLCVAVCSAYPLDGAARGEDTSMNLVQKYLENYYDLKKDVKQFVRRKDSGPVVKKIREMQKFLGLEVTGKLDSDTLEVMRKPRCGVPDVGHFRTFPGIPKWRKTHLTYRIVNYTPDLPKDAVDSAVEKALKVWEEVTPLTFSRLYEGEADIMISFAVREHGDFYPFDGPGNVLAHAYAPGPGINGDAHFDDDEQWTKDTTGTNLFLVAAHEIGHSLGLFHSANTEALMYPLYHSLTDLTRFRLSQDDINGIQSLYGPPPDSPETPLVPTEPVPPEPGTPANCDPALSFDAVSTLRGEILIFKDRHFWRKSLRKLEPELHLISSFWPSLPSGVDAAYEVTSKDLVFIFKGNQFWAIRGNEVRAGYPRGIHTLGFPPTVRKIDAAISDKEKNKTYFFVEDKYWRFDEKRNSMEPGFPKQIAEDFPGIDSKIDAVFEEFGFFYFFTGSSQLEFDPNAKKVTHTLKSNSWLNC

Row | Structure (SMILES) | IC50 [1] | IC50 [2] | other results
1 | CN1C(=O)N(CC(COc2ccc(-c3ccccc3)cc2)N(O)C=O)C(=O)C1(C)C (stereo not drawn) | 1.1 µM | 0.089 µM | 
2 | CC1(C)NC(=O)N(CC(COc2ccc(-c3ccc(C#N)cc3)cc2)N(O)C=O)C1=O (stereo not drawn) | 2.1 µM | 0.008 µM | half-life [3]: 8 h
3 | CC1(C)NC(=O)N(CC(COc2ccc(-c3ccc(S(C)(=O)=O)cc3)cc2)N(O)C=O)C1=O (stereo not drawn) | 4.9 µM | 0.048 µM | half-life [3]: 5 h
4 | COc1ccc(-c2ccc(OCC(CN3C(=O)N(C)C(C)(C)C3=O)N(O)C=O)cc2)cc1 (stereo not drawn) |  | 0.004 µM | 
5 | COCCOc1ccc(-c2ccc(OCC(CN3C(=O)NC(C)(C)C3=O)N(O)C=O)cc2)cc1 (stereo not drawn) | > 10 µM | 0.004 µM | half-life [3]: 1 h
6 | CN1C(=O)N(CC(COc2ccc(-c3ccco3)cc2)N(O)C=O)C(=O)C1(C)C (stereo not drawn) | 1.6 µM | 0.085 µM | 
7 | CCOc1ccc(-c2ccc(OCC(CN3C(=O)NC(C)(C)C3=O)N(O)C=O)cc2)cc1 (stereo not drawn) | 1 µM | 0.001 µM | 
8 | CN1C(=O)N(CC(COc2ccc(-c3ccc(C#N)cc3)cc2)N(O)C=O)C(=O)C1(C)C (stereo not drawn) |  | 0.058 µM | 
9 | CN1C(=O)N(CC(COc2ccc(-c3cccs3)cc2)N(O)C=O)C(=O)C1(C)C (stereo not drawn) | 3.6 µM | 0.13 µM | 
10 | Cc1ccc(-c2ccc(OCC(CN3C(=O)N(C)C(C)(C)C3=O)N(O)C=O)cc2)cc1 (stereo not drawn) | 1.6 µM | 0.02 µM | 
11 | CC1(C)NC(=O)N(CC(COc2ccc(-c3ccc(C(F)(F)F)cc3)cc2)N(O)C=O)C1=O (stereo not drawn) | 0.84 µM | 0.02 µM | 
12 | CN1C(=O)N(CC(COc2ccc(-c3cccnc3)cc2)N(O)C=O)C(=O)C1(C)C (stereo not drawn) | > 10 µM | > 10 µM | 
13 | CCCCc1ccc(-c2ccc(OCC(CN3C(=O)NC(C)(C)C3=O)N(O)C=O)cc2)cc1 (stereo not drawn) | > 10 µM | 0.016 µM | half-life [3]: 1 h
14 | C=Cc1ccc(-c2ccc(OCC(CN3C(=O)N(C)C(C)(C)C3=O)N(O)C=O)cc2)cc1 (stereo not drawn) | > 10 µM | 0.061 µM | 
15 | CN1C(=O)N(CC(COc2cccc(-c3ccc(C#N)cc3)c2)N(O)C=O)C(=O)C1(C)C (stereo not drawn) | > 10 µM | > 10 µM | 
16 | CCCCCOc1ccc(-c2ccc(OCC(CN3C(=O)NC(C)(C)C3=O)N(O)C=O)cc2)cc1 (stereo not drawn) | > 10 µM | 0.026 µM | 
17 | CC1(C)NC(=O)N(C[C@@H](COc2ccc(-c3ccc(OC(F)(F)F)cc3)cc2)N(O)C=O)C1=O | 4.6 µM | 0.004 µM | AUC [4]: 24 µg·h/mL; IC50 [5]: 0.12 µM; half-life [6]: 9 h; T1/2 [3]: 8 h and 21 h; IC50 [7]: > 10 µM; AUC [8]: 43 µg·h/mL; Clp [9]: 0.12 L/h/kg; Effective dose [10]: 300 mg/kg; bioavailability [11]: 83%; bioavailability [12]: 93%; Clp [13]: 0.11 L/h/kg; ILS at 100 mg/kg [14]: 46%; Clp [15]: 0.068 L/h/kg; Vd [16]: 0.9 L/kg; bioavailability [17]: 95%; Vd [18]: 1.2 L/kg; IC50 [19]: 0.042 µM; AUC [20]: 23 µg·h/mL; Vd [21]: 1.2 L/kg
18 | CC1(C)NC(=O)N(C[C@H](COc2ccc(-c3ccc(OC(F)(F)F)cc3)cc2)N(O)C=O)C1=O | > 10 µM | 0.18 µM | IC50 [5]: 1.2 µM; IC50 [7]: > 10 µM; IC50 [19]: 3.1 µM
19 | CC1(C)NC(=O)N(CC(COc2ccc(-c3ccc(OC(F)(F)F)cc3)cc2)N(O)C=O)C1=O (stereo not drawn) | 8.6 µM | 0.006 µM | half-life [3]: 20 h
20 | CN1C(=O)N(CC(COc2ccc(-c3cccc(C#N)c3)cc2)N(O)C=O)C(=O)C1(C)C (stereo not drawn) | > 10 µM | 1.3 µM | 
21 | CCCOc1ccc(-c2ccc(OCC(CN3C(=O)NC(C)(C)C3=O)N(O)C=O)cc2)cc1 (stereo not drawn) | > 10 µM | 0.004 µM | half-life [3]: 1 h
